Assay results taken from patent US5856480A, “Optically active compound” (Nippon Soda Co., Ltd., priority 1994, dated 1999).

How the values were obtained:
[1] = test system: platelet aggregation induced by adenosine diphosphate (ADP); experiment: Inhibitory effect on platelet aggregation induced by ADP, in vitro, PRP; type: cell-based, rabbits; conditions: Oryctolagus cuniculus, 10 μM ADP, rabbit PRP, 3 min pre-incubation, measured 5 min, read-out: Inhibition of Platelet Aggregation (IC50), ADP
Method: (§1) In vitro inhibitory activity of the compound of the present invention was evaluated on platelet aggregation each induced by adenosine diphosphate (ADP), collagen, arachidonic acid, U-46619 and thrombin, respectively, by using an aggregation meter (type: hematracer PAT-606, manufactured by Niko bioscience Co., Ltd). 0.38% citric acid-containing blood collected from rabbits was centrifuged at 1,200 rpm for 15 min. to thereby obtain platelet rich plasma (hereinafter referred to as PRP). The PRP obtained was further centrifuged at 3,500 rpm for 10 min., and the supernatant was used as platelet poor plasma (hereinafter referred to as PPP). The platelets in the PRP were prepared by dilution with PPP to a concentration of 2 to 5×10^8 cells/ml, and 10 μM of ADP, 20 μg/ml of collagen, 200 μg/ml of arachidonic acid, 10 μM of U-46619 and 0.5 U/ml of thrombin are used for the induction of platelet aggregation, respectively, where all of those concentrations are expressed in the final concentration. The test compound was dissolved in dimethyl sulfoxide (DMSO), and to 0.2 μl of the solution thus obtained, was added 0.2 ml of the sample of PRP prepared as described above, then the solution was placed for pre-incubation for 3 min. Then, each 22 μl of the said aggregation-inducing agents, ADP, collagen, U-46619 and thrombin, and 2.2 μl of arachidonic acid, were added thereto, respectively, then platelet aggregation was measured for 5 min., except for collagen, for which the measurement was conducted for 10 min. The inhibitory effect on platelet aggregation was expressed as inhibition rate (%) respective to the maximum aggregation rate obtained in the control plot. [formula]
(§2) A dose-response curve was prepared, and from which IC50, a dose attainable 50% inhibition of platelet aggregation, was determined.

[2] = test system: platelet aggregation induced by collagen; experiment: Inhibitory effect on platelet aggregation induced by collagen, in vitro, PRP; type: cell-based, rabbits; conditions: Oryctolagus cuniculus, 20 μg/ml collagen, rabbit PRP, 3 min pre-incubation, measured 10 min, read-out: Inhibition of Platelet Aggregation (IC50), Collagen
Method: as §1, §2

[3] = test system: platelet aggregation induced by arachidonic acid; experiment: Inhibitory effect on platelet aggregation induced by arachidonic acid, in vitro, PRP; type: cell-based, rabbits; conditions: Oryctolagus cuniculus, 200 μg/ml arachidonic acid, rabbit PRP, 3 min pre-incubation, measured 5 min, read-out: Inhibition of Platelet Aggregation (IC50), Arachidonic Acid
Method: as §1, §2

[4] = test system: platelet aggregation induced by U-46619; experiment: Inhibitory effect on platelet aggregation induced by U-46619, in vitro, PRP; type: cell-based, rabbits; conditions: Oryctolagus cuniculus, 10 μM U-46619, rabbit PRP, 3 min pre-incubation, measured 5 min, read-out: Inhibition of Platelet Aggregation (IC50), U-46619
Method: as §1, §2

[5] = test system: platelet aggregation induced by thrombin; experiment: Inhibitory effect on platelet aggregation induced by thrombin, in vitro, PRP; type: cell-based, rabbits; conditions: Oryctolagus cuniculus, 0.5 U/ml thrombin, rabbit PRP, 3 min pre-incubation, measured 5 min, read-out: Inhibition of Platelet Aggregation (IC50), Thrombin
Method: as §1, §2

platelet aggregation = experiment: Inhibitory effect on platelet aggregation, overall statement; type: cell-based, rabbits; conditions: same procedure as Test Example 1; crystalline compound of Example 2
Method: as §1, with “The platelets in the PRP were prepared by dilution with PPP to a concentration of 2 to 5×10^8 cells/ml, and 10 μM of ADP, 20 μg/ml of collagen, 200 μg/ml of arachidonic acid, 10 μM of U-46619 and 0.5 U/ml of thrombin are used for the induction of platelet aggregation, respectively, where all of those concentrations are expressed in the final concentration. The test compound was dissolved in dimethyl sulfoxide (DMSO), and to 0.2 μl of the solution thus obtained, was added 0.2 ml of the sample of PRP prepared as described above, then the solution was placed for pre-incubation for 3 min.” left out, “[formula]” left out

[6] = Test on Stability (remaining rate by HPLC after storage at 80° C.); type: physicochemical; conditions: for Remaining Rate (%), 0 day: 80° C.; for Remaining Rate (%), 0 day / Remaining Rate (%), After 4 days: sealed vial, HPLC; for Remaining Rate (%), After 4 days: after 4 days at 80° C., 5760 min
Method: To 30 ml of ethanol, was dissolved 2 g of (R)-(-)-4,5-dihydro-5-methyl-6-[4-[(2-propyl-3-oxo-1-cyclohexenyl) amino]phenyl]-3(2H)-pyridazinone under heating, and the solution was place for cooling under room temperature. After condensing the solvent of the solution under reduced pressure, the solution was then dried under reduced pressure by using a vacuum pump, thereby affording 1.5 g of the noncrystalline powder of said compound of which melting point being of from 102° to 106° C.
Each 10 mg of the noncrystalline powder obtained as described above and the crystalline form obtained in the Example 2 were weighed precisely, placed in a 20 ml volume vial then sealed, respectively, and preserved for 4 days at 80° C. Then, the vials were cooled to room temperature, and subsequently the determination of the remaining rate (%) of the test compounds were conducted by using high performance liquid chromatography (HPLC).
Column: TSK-gel 80 TM 4.6 mm I.D×250 mm (Manufactured by Tosoh Corporation)
Mobile phase: Mixture of acetonitrile and distillated water (Combining rate, 60/40)
Flow Speed: 1.0 ml/min., Temperature: 40° C., Wavelength for Detection: 254 nm

[7] = Residue of Solvent (water by Karl Fischer, ethanol by GC); type: physicochemical; conditions: for Water Content (%): Karl Fischer moisture meter; for removal of remaining solvent by drying (in words): as demonstrated in Table 4; for Ethanol Content (%): gas chromatography, sample in DMSO
Method: By using the same noncrystalline powder and the crystalline form as the ones used in the Test Example 2, the amount of remaining solvent was analyzed.
Each 50 mg of the noncrystalline powder and the crystalline form were weighed precisely, on which water content was determined by using a Karl Fischer moisture meter, respectively. Whereas, each 50 mg of the noncrystalline powder and the crystalline form were weighed and dissolved in dimethyl sulfoxide (DMSO), respectively, and those solution were adjusted to a volume of 50 ml, respectively. A 2 μl portion out of the 50 ml solution was used for determining the ethanol content in the test sample by using gas chromatography (GC), respectively.
N2 : 25 ml/min, Air: 0.6 kg/cm^2, H2 : 0.6 kg/cm^2
Temperature : 180° C. at Column; 220° C. at Injection site, 220° C. at Detection site.

Compound | IC50 [1] | IC50 [2] | IC50 [3] | IC50 [4] | IC50 [5] | inhibitory effect on platelet aggregation (in words) (platelet aggregation) | Remaining Rate (%), 0 day [6] | stability (in words) ([6]; 4 days at 80° C., crystalline form versus noncrystalline powder) | Remaining Rate (%), After 4 days [6] | Water Content (%) [7] | removal of remaining solvent by drying (in words) [7] | Ethanol Content (%) [7]
CCCC1=C(Nc2ccc(C3=NNC(=O)C[C@@H]3C)cc2)CCCC1=O [(S)-(-)-(I)] | 780 µM | 1010 µM | 290 µM | > 100 µM | 560 µM |  |  |  |  |  |  | 
CCCC1=C(Nc2ccc(C3=NNC(=O)CC3C)cc2)CCCC1=O (racemic) [(±)-(I), 4,5-dihydro-5-methyl-6-[4-[(2-propyl-3-oxo-1-cyclohexenyl)amino]phenyl]-3(2H)-pyridazinone] | 4.5 µM | 3.5 µM | 1.7 µM | 1.5 µM | 3 µM |  |  |  |  |  |  | 
CCCC1=C(Nc2ccc(C3=NNC(=O)C[C@H]3C)cc2)CCCC1=O (single isomer, unassigned) [(R)-(-)-(I)] | 2.9 µM | 2.5 µM | 0.82 µM | 0.38 µM | 1.5 µM |  |  |  |  |  |  | 
CCCC1=C(Nc2ccc(C3=NNC(=O)C[C@H]3C)cc2)CCCC1=O [Crystalline form, (R)-(-)-4,5-dihydro-5-methyl-6-[4-[(2-propyl-3-oxo-1-cyclohexenyl)amino]phenyl]-3(2H)-pyridazinone] |  |  |  |  |  | excellent inhibitory effect on platelet aggregation similar to the effect of the noncrystalline compound, (R)-(-)-(I) | 100% | superior than that of the noncrystalline powder | 96% | 0.2% | easy to dry | 0.2%
CCCC1=C(Nc2ccc(C3=NNC(=O)C[C@H]3C)cc2)CCCC1=O [Noncrystalline powder, (R)-(-)-4,5-dihydro-5-methyl-6-[4-[(2-propyl-3-oxo-1-cyclohexenyl)amino]phenyl]-3(2H)-pyridazinone] |  |  |  |  |  |  | 100% |  | 58% | 1.3% | difficult to completely remove the remaining solvent | 4.3%
